Measured values from PubChem BioAssay (NCI).
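Briefly, cells in 96-well plates were exposed to five compound concentrations for 48 h, and endpoints were estimated by linear interpolation. At the GI50, growth is halved. The concentration for full growth arrest is given as TGI.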

What was measured:
Assay in all cases: NCI anticancer screen, dose series, 48 h
SK-OV-3 ovarian = test system: SK-OV-3 ovarian
UACC-257 melanoma = test system: UACC-257 melanoma
K-562 leukemia = test system: K-562 leukemia
SF-539 CNS = test system: SF-539 CNS
OVCAR-4 ovarian = test system: OVCAR-4 ovarian
MALME-3M melanoma = test system: MALME-3M melanoma
HOP-92 NSCLC = test system: HOP-92 NSCLC
SR leukemia = test system: SR leukemia
HOP-62 NSCLC = test system: HOP-62 NSCLC
NCI-H460 lung = test system: NCI-H460 lung
HCT-116 colon = test system: HCT-116 colon
MDA-MB-231 breast = test system: MDA-MB-231 breast
CCRF-CEM leukemia = test system: CCRF-CEM leukemia
SK-MEL-5 melanoma = test system: SK-MEL-5 melanoma
HS 578T breast = test system: HS 578T breast
CAKI-1 renal = test system: CAKI-1 renal
SW-620 colon = test system: SW-620 colon
RPMI-8226 leukemia = test system: RPMI-8226 leukemia
SK-MEL-2 melanoma = test system: SK-MEL-2 melanoma
SNB-75 CNS = test system: SNB-75 CNS
TK-10 renal = test system: TK-10 renal
MOLT-4 leukemia = test system: MOLT-4 leukemia
OVCAR-5 ovarian = test system: OVCAR-5 ovarian
A498 renal = test system: A498 renal
NCI/ADR-RES ovarian = test system: NCI/ADR-RES ovarian
EKVX NSCLC = test system: EKVX NSCLC
MDA-MB-435 = test system: MDA-MB-435
OVCAR-8 ovarian = test system: OVCAR-8 ovarian
SK-MEL-28 melanoma = test system: SK-MEL-28 melanoma
A549 NSCLC = test system: A549 NSCLC
HCT-15 colon = test system: HCT-15 colon
MCF7 breast = test system: MCF7 breast
786-0 renal = test system: 786-0 renal
UO-31 renal = test system: UO-31 renal
LOX IMVI melanoma = test system: LOX IMVI melanoma
PC-3 prostate = test system: PC-3 prostate
HL-60(TB) leukemia = test system: HL-60(TB) leukemia
IGROV1 ovarian = test system: IGROV1 ovarian
SNB-19 CNS = test system: SNB-19 CNS
UACC-62 melanoma = test system: UACC-62 melanoma
ACHN renal = test system: ACHN renal
SN12C renal = test system: SN12C renal
NCI-H226 lung = test system: NCI-H226 lung
HT29 colon = test system: HT29 colon
COLO 205 colon = test system: COLO 205 colon
SF-295 CNS = test system: SF-295 CNS
HCC-2998 colon = test system: HCC-2998 colon
U251 CNS = test system: U251 CNS
DU-145 prostate = test system: DU-145 prostate
M14 melanoma = test system: M14 melanoma
T-47D breast = test system: T-47D breast
OVCAR-3 ovarian = test system: OVCAR-3 ovarian
NCI-H23 lung = test system: NCI-H23 lung
KM12 colon = test system: KM12 colon
SF-268 CNS = test system: SF-268 CNS

Compound Cc1cccc2cc(/C=C/C(=O)/C=C/c3ccc(Cl)cc3)c(=O)[nH]c12 has a GI50 (SK-OV-3 ovarian) of over 100 µM, a TGI (SK-OV-3 ovarian) of over 100 µM and a GI50 (UACC-257 melanoma) of over 100 µM. It also gave a TGI (UACC-257 melanoma) of over 100 µM, a GI50 (K-562 leukemia) of 3.8 µM and a TGI (K-562 leukemia) of over 100 µM. It also gave a GI50 (SF-539 CNS) of over 100 µM, a TGI (SF-539 CNS) of over 100 µM and a GI50 (OVCAR-4 ovarian) of over 100 µM. It also gave a TGI (OVCAR-4 ovarian) of over 100 µM, a GI50 (MALME-3M melanoma) of over 100 µM and a TGI (MALME-3M melanoma) of over 100 µM. For the same compound, the GI50 (HOP-92 NSCLC) was over 100 µM, the TGI (HOP-92 NSCLC) was over 100 µM and the GI50 (SR leukemia) was 2.72 µM. For the same compound, the TGI (SR leukemia) was 11.6 µM, the GI50 (HOP-62 NSCLC) was over 100 µM and the TGI (HOP-62 NSCLC) was over 100 µM. For the same compound, the GI50 (NCI-H460 lung) was over 100 µM, the TGI (NCI-H460 lung) was over 100 µM and the GI50 (HCT-116 colon) was 0.259 µM. The TGI (HCT-116 colon) was 0.635 µM, the GI50 (MDA-MB-231 breast) was 3.71 µM and the TGI (MDA-MB-231 breast) was over 100 µM. For the same compound, the GI50 (CCRF-CEM leukemia) was 3.98 µM, the TGI (CCRF-CEM leukemia) was 88.8 µM and the GI50 (SK-MEL-5 melanoma) was over 100 µM. It also gave a TGI (SK-MEL-5 melanoma) of over 100 µM, a GI50 (HS 578T breast) of over 100 µM and a TGI (HS 578T breast) of over 100 µM. The GI50 (CAKI-1 renal) was over 100 µM, the TGI (CAKI-1 renal) was over 100 µM and the GI50 (SW-620 colon) was 2.98 µM. For the same compound, the TGI (SW-620 colon) was over 100 µM, the GI50 (RPMI-8226 leukemia) was 0.331 µM and the TGI (RPMI-8226 leukemia) was 1.26 µM. For the same compound, the GI50 (SK-MEL-2 melanoma) was over 100 µM, the TGI (SK-MEL-2 melanoma) was over 100 µM and the GI50 (SNB-75 CNS) was 16.8 µM. It also gave a TGI (SNB-75 CNS) of over 100 µM, a GI50 (TK-10 renal) of over 100 µM and a TGI (TK-10 renal) of over 100 µM. The GI50 (MOLT-4 leukemia) was 5.69 µM, the TGI (MOLT-4 leukemia) was over 100 µM and the GI50 (OVCAR-5 ovarian) was over 100 µM. The TGI (OVCAR-5 ovarian) was over 100 µM, the GI50 (A498 renal) was over 100 µM and the TGI (A498 renal) was over 100 µM. For the same compound, the GI50 (NCI/ADR-RES ovarian) was over 100 µM, the TGI (NCI/ADR-RES ovarian) was over 100 µM and the GI50 (EKVX NSCLC) was over 100 µM. For the same compound, the TGI (EKVX NSCLC) was over 100 µM.
For CC(C)=CCC/C(C)=C/CC/C(C)=C/CSC[C@H](NC(=O)CCCCCN1CCN(C)CC1)C(=O)NC1CCCCCC1, the GI50 (MDA-MB-435) was 1.85 µM, the TGI (MDA-MB-435) was 3.43 µM and the GI50 (SK-OV-3 ovarian) was 5.16 µM. It also gave a TGI (SK-OV-3 ovarian) of 17.1 µM, a GI50 (UACC-257 melanoma) of 1.85 µM and a TGI (UACC-257 melanoma) of 3.63 µM. For the same compound, the GI50 (OVCAR-8 ovarian) was 3.33 µM, the TGI (OVCAR-8 ovarian) was 12.2 µM and the GI50 (SK-MEL-28 melanoma) was 1.7 µM. The TGI (SK-MEL-28 melanoma) was 3.32 µM, the GI50 (K-562 leukemia) was 2.24 µM and the TGI (K-562 leukemia) was 5.14 µM. For the same compound, the GI50 (SF-539 CNS) was 1.89 µM, the TGI (SF-539 CNS) was 3.38 µM and the GI50 (A549 NSCLC) was 2.5 µM. The TGI (A549 NSCLC) was 7.4 µM, the GI50 (HCT-15 colon) was 1.94 µM and the TGI (HCT-15 colon) was 3.93 µM. The GI50 (OVCAR-4 ovarian) was 3.21 µM, the TGI (OVCAR-4 ovarian) was 13.1 µM and the GI50 (MCF7 breast) was 2.12 µM. It also gave a TGI (MCF7 breast) of 4.79 µM, a GI50 (786-0 renal) of 1.77 µM and a TGI (786-0 renal) of 3.19 µM. For the same compound, the GI50 (MALME-3M melanoma) was 1.94 µM, the TGI (MALME-3M melanoma) was 3.56 µM and the GI50 (HOP-92 NSCLC) was 2.3 µM. It also gave a TGI (HOP-92 NSCLC) of 8.39 µM, a GI50 (UO-31 renal) of 1.58 µM and a TGI (UO-31 renal) of 3.22 µM. For the same compound, the GI50 (SR leukemia) was 1.98 µM, the TGI (SR leukemia) was 5.35 µM and the GI50 (LOX IMVI melanoma) was 1.76 µM. The TGI (LOX IMVI melanoma) was 3.29 µM, the GI50 (PC-3 prostate) was 1.89 µM and the TGI (PC-3 prostate) was 4.31 µM. The GI50 (HL-60(TB) leukemia) was 1.98 µM, the TGI (HL-60(TB) leukemia) was 4.14 µM and the GI50 (IGROV1 ovarian) was 2.36 µM. The TGI (IGROV1 ovarian) was 5.31 µM, the GI50 (SNB-19 CNS) was 2.02 µM and the TGI (SNB-19 CNS) was 4.43 µM. It also gave a GI50 (HOP-62 NSCLC) of 4.42 µM, a TGI (HOP-62 NSCLC) of 19.3 µM and a GI50 (UACC-62 melanoma) of 1.78 µM. For the same compound, the TGI (UACC-62 melanoma) was 3.44 µM, the GI50 (ACHN renal) was 1.75 µM and the TGI (ACHN renal) was 3.21 µM. For the same compound, the GI50 (SN12C renal) was 2.05 µM, the TGI (SN12C renal) was 4.51 µM and the GI50 (NCI-H460 lung) was 1.93 µM. The TGI (NCI-H460 lung) was 3.69 µM, the GI50 (HCT-116 colon) was 1.71 µM and the TGI (HCT-116 colon) was 3.16 µM. For the same compound, the GI50 (MDA-MB-231 breast) was 1.93 µM, the TGI (MDA-MB-231 breast) was 3.86 µM and the GI50 (NCI-H226 lung) was 11.6 µM. For the same compound, the TGI (NCI-H226 lung) was 38.4 µM, the GI50 (HT29 colon) was 2.19 µM and the TGI (HT29 colon) was 4.74 µM. For the same compound, the GI50 (COLO 205 colon) was 1.85 µM, the TGI (COLO 205 colon) was 3.63 µM and the GI50 (CCRF-CEM leukemia) was 2.35 µM. The TGI (CCRF-CEM leukemia) was 7.07 µM, the GI50 (SK-MEL-5 melanoma) was 1.77 µM and the TGI (SK-MEL-5 melanoma) was 3.18 µM. It also gave a GI50 (HS 578T breast) of 1.95 µM, a TGI (HS 578T breast) of 4.53 µM and a GI50 (SF-295 CNS) of 1.75 µM. For the same compound, the TGI (SF-295 CNS) was 3.38 µM, the GI50 (HCC-2998 colon) was 1.84 µM and the TGI (HCC-2998 colon) was 3.61 µM. The GI50 (U251 CNS) was 1.73 µM, the TGI (U251 CNS) was 3.19 µM and the GI50 (DU-145 prostate) was 1.93 µM. The TGI (DU-145 prostate) was 3.52 µM, the GI50 (CAKI-1 renal) was 2.84 µM and the TGI (CAKI-1 renal) was 9.19 µM. It also gave a GI50 (SW-620 colon) of 1.87 µM, a TGI (SW-620 colon) of 3.88 µM and a GI50 (RPMI-8226 leukemia) of 1.98 µM. It also gave a TGI (RPMI-8226 leukemia) of 4.67 µM, a GI50 (SK-MEL-2 melanoma) of 2.24 µM and a TGI (SK-MEL-2 melanoma) of 4.42 µM. For the same compound, the GI50 (SNB-75 CNS) was 1.53 µM, the TGI (SNB-75 CNS) was 4.22 µM and the GI50 (M14 melanoma) was 1.73 µM. For the same compound, the TGI (M14 melanoma) was 3.43 µM, the GI50 (TK-10 renal) was 4.4 µM and the TGI (TK-10 renal) was 9.11 µM. It also gave a GI50 (T-47D breast) of 2.22 µM, a TGI (T-47D breast) of 6.45 µM and a GI50 (MOLT-4 leukemia) of 2.69 µM. The TGI (MOLT-4 leukemia) was 7.48 µM, the GI50 (OVCAR-5 ovarian) was 1.84 µM and the TGI (OVCAR-5 ovarian) was 3.6 µM. For the same compound, the GI50 (A498 renal) was 3.76 µM, the TGI (A498 renal) was 16.7 µM and the GI50 (OVCAR-3 ovarian) was 2.06 µM. It also gave a TGI (OVCAR-3 ovarian) of 4.1 µM, a GI50 (NCI-H23 lung) of 3.01 µM and a TGI (NCI-H23 lung) of 8.78 µM. The GI50 (KM12 colon) was 1.97 µM, the TGI (KM12 colon) was 3.86 µM and the GI50 (SF-268 CNS) was 2.02 µM. For the same compound, the TGI (SF-268 CNS) was 4.03 µM, the GI50 (NCI/ADR-RES ovarian) was 3.89 µM and the TGI (NCI/ADR-RES ovarian) was 14.6 µM.
For c1ccc(-c2c(-c3ccccc3)[n+](Cc3ccc4ccccc4c3)cn2Cc2ccc3ccccc3c2)cc1, the GI50 (HOP-92 NSCLC) was 0.122 µM, the TGI (HOP-92 NSCLC) was 1.26 µM and the GI50 (ACHN renal) was 1.47 µM. It also gave a TGI (ACHN renal) of 2.9 µM, a GI50 (HS 578T breast) of 1.74 µM and a TGI (HS 578T breast) of 4.91 µM. It also gave a GI50 (NCI/ADR-RES ovarian) of 2.13 µM and a TGI (NCI/ADR-RES ovarian) of 5.12 µM.
